The subject of assay [1] is MHCC97H. The assay is described as follows: CCK8 experiment, proliferation of liver cancer cell line. The format is cell-based, human. Particulars: for effect on proliferation: CCK8 growth curves 0-72 hours, inhibitor 10 μM, 20 μM. The procedure: (§1) 7. CCK8 experiment 1) On the first day, after routine trypsinization and counting of cells in a 60 mm culture dish, 5000 cells/well, inoculated 4 96-well plates. 2) On the second day, after about 24 hours of culture, the cell growth was in the logarithmic phase. […] Took a 96-well plate and added 10% CCK8, 100 μl/well, and measured the OD value at 0 hour at 450 nm wavelength after 1 hour. Cell-free well was a blank background. 3) On the third day, added 10% CCK8 to a 96-well plate, and measured the OD value at 24 hours at 450 nm wavelength after 1 hour. 4) On the fourth day, added 10% CCK8 to a 96-well plate, and measured the OD value at 48 hours at 450 nm wavelength after 1 hour. 5) On the fifth day, added 10% CCK8 to a 96-well plate, and measured the OD value at 72 hours at 450 nm wavelength after 1 hour. 6) Summarized the OD values at all time points and drew growth curves. 8. Cell migration experiment

The test system of assay [2] is Huh7. The assay is described as above. Format: cell-based, human. Conditions: for effect on proliferation: Huh7, CCK8 growth curves 0-72 hours, inhibitor 10 μM, 20 μM. The procedure: as §1
The test system of assay [3] is leukemia Jurkat cell line. The assay is described as follows: Proliferation of other tumor cell lines. The format is cell-based, human. Particulars: FIG. 7. As for the experimental part: (§2) 1) On the first day, after routine trypsinization and counting of cells in a 60 mm culture dish, 5000 cells/well, inoculated 4 96-well plates.
(§3) 2) On the second day, after about 24 hours of culture, the cell growth was in the logarithmic phase. Replaced with a new culture medium added with different concentrations of SOAT1 inhibitor, 100 μl/well, set 10 μM, 20 μM concentration group and control group respectively, the control group was 1% DMSO, each group had 3 repetitive wells. Took a 96-well plate and added 10% CCK8, 100 μl/well, and measured the OD value at 0 hour at 450 nm wavelength after 1 hour. Cell-free well was a blank background.
(§4) 3) On the third day, added 10% CCK8 to a 96-well plate, and measured the OD value at 24 hours at 450 nm wavelength after 1 hour.
(§5) 4) On the fourth day, added 10% CCK8 to a 96-well plate, and measured the OD value at 48 hours at 450 nm wavelength after 1 hour.
(§6) 5) On the fifth day, added 10% CCK8 to a 96-well plate, and measured the OD value at 72 hours at 450 nm wavelength after 1 hour.
(§7) 6) Summarized the OD values at all time points and drew growth curves. 8. Cell migration experiment

In assay [4] the test system is non-small cell lung cancer A549 cell line. The assay is described as follows: Proliferation of other tumor cell lines. The format is cell-based, human. Particulars: A549, FIG. 7. As for the experimental part:
as §2, §3, §4, §5, §6, §7

Assay [5] relates to Cervical cancer Hela cell line. The assay is described as follows: Proliferation of other tumor cell lines. Format: cell-based, human. Conditions: FIG. 7. The procedure: as §2, §3, §4, §5, §6, §7
Assay [6] relates to colon cancer HCT116 cell line. The assay is described as follows: Proliferation of other tumor cell lines. Particulars: HCT116, FIG. 7. The format is cell-based, human. As for the experimental part:
as §2, §3, §4, §5, §6, §7

The test system of assay [7] is esophageal cancer ECA109 cell line. The assay is described as follows: Proliferation of other tumor cell lines. Format: cell-based, human. Particulars: ECA109, FIG. 7. The procedure: as §2, §3, §4, §5, §6, §7
Assay [8] has as its system breast cancer MCF7 cell line. The assay is described as follows: Proliferation of other tumor cell lines. Format: cell-based, human. Particulars: MCF7, FIG. 7. The procedure:
as §2, §3, §4, §5, §6, §7

For assay [9], the system named is TGFBR1. The assay is described as follows: Expression of cholesterol regulation and tumor invasion molecules (FIG. 8). The format is cell-based.
In assay [10] the test system is PLC/PRF/5. The assay is described as follows: CCK8 experiment, proliferation of liver cancer cell line. Format: cell-based, human. The procedure:
as §2, §3, §4, §5, §6, §7

The subject of assay [11] is PLC/PRF/5. The assay is described as follows: Cell migration experiment (transwell). The format is cell-based, human. Conditions: 20-24 hours, Avasimibe concentration 10 μM or SOAT1 knockdown. The procedure: as §7
(§8) (1) Starving cells: Withdrew the whole medium, washed twice with PBS, and replaced with serum-free DMEM.
(§9) (2) Added 2.5% serum of DMEM to the transwell lower chamber, 600 ul/well. Equilibrated overnight in a 37° C. incubator. Thetranswell chamber was 3422 of
(§10) (3) Added trypsin to digest the hungry cells from yesterday (about 30-50 seconds at room temperature), quickly and carefully sucked up the trypsin, added 1 ml of complete medium, and collected in a 1.5 ml centrifuge tube;
(§11) (4) Centrifuged at 800 rpm for 4 min; discarded the supernatant, added serum-free DMEM, and washed once; centrifuged again for 4 min at 800 rpm; discarded the supernatant and added 0.5% FBS in DMEM;
(§12) 100 μl/well was added to the tanswell upper chamber. The third day (20-24 hours later): (6) Discarded the culture medium; (7) Fixed with anhydrous methanol for 20 minutes; (8) Air-dried the film; (9) Pinched the cotton of the cotton swab to flat and rotated it to clean the upper chamber cells. Wrapped the tweezers with a cotton ball to gently wipe off the edge cells. (10) 0.5% crystal violet staining; (11) Rinsed slowly with clean water; (12) Observed and took pictures under an inverted microscope. 9. Western blot detection was done by conventional methods. 10. Statistical analysis

Assay [12] deals with HepG2. The assay is described as follows: Cell migration experiment (transwell). Format: cell-based, human. Conditions: 20-24 hours, Avasimibe concentration 10 μM or SOAT1 knockdown. The procedure:
as §7, §8, §9, §10, §11, §12

The subject of assay [13] is HepG2. The assay is described as follows: CCK8 experiment, proliferation of liver cancer cell line. Format: cell-based, human. Conditions: CCK8 growth curves 0-72 hours, inhibitor 10 μM, 20 μM or SOAT1 knockdown.
Assay [14] relates to ITGAV. The assay is described as follows: Expression of cholesterol regulation and tumor invasion molecules (FIG. 8). The format is cell-based.
Assay [15] deals with transcription factor SREBF2. The assay is described as above. Format: cell-based.
The subject of assay [16] is extracellular uptake receptor (LDLR). Described as above. Format: cell-based.
For assay [17], the system named is ITGB4. Described as above. The format is cell-based.

Consider `CSc1cc(C)nc(SC)c1NC(=O)CN1CCN(CCSc2nc3ccccc3[nH]2)CC1.Cl` [K604, 2-[4-[2-(benzimidazol-2-ylthio)ethyl]piperazin-lyl]-N-[2,4-bis(methylthio)-6-methyl-3-pyridyl]acetamide], for which the effect on proliferation entry in assay [1] and in [2] was “significantly inhibited the proliferation” in each case.
The term IC50 denotes the concentration that inhibits the measured activity by half. Low readings indicate higher potency, high ones lower potency. As to Avasimibe, the effect on proliferation entry in [3], in assay [4], in [5], in assay [6], in assay [7] and in assay [8] was “significantly inhibited the proliferation” in each case. Moreover, the effect on proliferation result is “significantly inhibit the proliferation” in assay [10] (PLC/PRF/5, CCK8 growth curves 0-72 hours, inhibitor 10 μM, 20 μM or SOAT1 knockdown); “significantly inhibit the proliferation” in [13]; “significantly inhibit the proliferation” in [1]; “significantly inhibit the proliferation” in assay [2]. Also, the “effect on expression of TGFBR1” value in [9] is “significantly inhibit the expression”. Also, the concentration for half-maximal inhibition (IC50) in [10] (PLC/PRF/5, FIG. 5A) was found to be 6.9 µM; in [1] (FIG. 5A) it was 25.2 µM; in [2] (Huh7, FIG. 5A) it was 6.8 µM. In addition, the effect on migration result in [11] and in assay [12] was “significantly reduce the migration” in each case. Besides, in assay [14], the “effect on expression of ITGAV” value is listed as “significantly inhibit the expression”. Also, in assay [15], the “effect on expression of SREBF2” value was “significantly inhibit the expression”. Further, the “effect on expression of LDLR” value in assay [16] is listed as “significantly inhibit the expression”. In assay [17], the “effect on expression of ITGB4” value is “significantly inhibit the expression”.

The record behind these values is patent US12540943B2, “Use of Acyl coenzyme A: cholesterol acyltransferase-1 in diagnosis and treatment of liver cancer” (ACADEMY OF MILITARY MEDICAL SCIENCES, priority 2018, dated 2026).
